# Measurements reported in ChEMBL document CHEMBL5604062, “ASAP - ZIKV NS2B-NS3 protease fluorescence dose response” (2024).
# Values joined by “and” are separate entries in the source; they are usually repeats but may differ in a detail not shown here. Identical values can stand only once.
# Target: Nonstructural protein 3 (Zika virus, UniProt A0A024AXB9)
# Experiment: Functional biochemical assay to identify treatments for viral infectious disease that targets Zika NS2B-NS3 protease. Utilizing a direct enzyme activity measurement method, reading the fluorescence intensity is used to characterize the relative potency of inhibitors as IC50.
# Parameters: species or system PRVABC59
# Sequence of Nonstructural protein 3 (A0A024AXB9 whole entry): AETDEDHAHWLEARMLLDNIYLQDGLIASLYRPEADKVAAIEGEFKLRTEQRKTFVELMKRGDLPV
row,IC50,SMILES
1,> 99.5 µM,COc1c(C)cc(C(=O)Nc2cccc(CN)c2)cc1NC(=O)OCc1ccccc1
2,> 99.5 µM,Cc1c(C(=O)Nc2cccc([C@H]3CCNC3)c2)cc(C2CC2)n1C
3,64.3 µM,O=C(Nc1cccnc1)C1CCN(Cc2c[nH]c3ccccc23)CC1
4,5.07 µM,Cn1ncc2c(C(=O)Nc3ccc4c(c3)CNC4)cc(C3CC3)nc21
5,1.49 µM,NS(=O)(=O)c1cc(F)cc(C(=O)Nc2ccc3c(c2)CNC3)c1
6,> 99.5 µM,NCc1cccc(NC(=O)[C@H]2CCc3nnc(C4CC4)n3C2)c1
7,0.062 µM and 0.038 µM,O=C(O)CCCc1cc(NC(=O)c2cc(F)cc3[nH]ncc23)cc2c1CNC2
8,> 99.5 µM,N#Cc1c(C(F)F)cccc1N1CCC(n2ncc(N)c2C(F)(F)F)CC1
9,> 99.5 µM,CS(=O)(=O)c1cc(NC(=O)OCc2ccccc2)cc(C(=O)Nc2cccc(CN)c2)c1
10,0.081 µM and 0.132 µM,O=C(Nc1ccc2c(c1)CNC2)c1cc(F)cc2[nH]nnc12
11,> 99.5 µM,CCn1ccnc(N2CC[C@H](c3cccnc3)C2)c1=O
12,> 99.5 µM,CN1CCN(C2CCN(C(=O)c3cc(C=O)n(C)c3)CC2)CC1
13,> 99.5 µM,CC(C)(C)OC(=O)NCc1cc(Cl)cc(C(=O)O)c1
14,2.49 µM,N[C@H]1Cc2ccc(NC(=O)c3cc(Cl)cc(NC(=O)OCc4ccccc4)c3)cc2C1
15,> 99.5 µM,NCc1cccc(CS(=O)(=O)c2cc(Cl)cc(NC(=O)OCc3ccccc3)c2)c1
16,> 99.5 µM,O=C(O)c1cc(Cl)ccc1S(=O)(=O)NC1CCN(S(=O)(=O)c2cccs2)CC1
17,> 99.5 µM,CCn1cc(-c2ccc3ocnc3c2)nc(N2CC[C@@H](CO)C2)c1=O
18,> 25 µM,Cc1c(C(=O)Nc2cc(C(=O)N(C)C3COC3)ccn2)cc(C2CC2)n1C
19,> 99.5 µM,CCn1cc(-c2cnccc2C)nc(N2CC[C@@H](CO)C2)c1=O
20,19.6 µM,CNCc1cccc(NC(=O)c2cc(Cl)cc(NC(=O)OCc3ccccc3)c2)c1
21,> 99.5 µM,Cn1ccc(COc2ccc([C@@H](NC(=O)OCc3ccccc3)C(=O)Nc3cccc(CN)c3)cc2)n1

row,IC50,SMILES
1,> 99.5 µM,CCNC(=O)c1ccc2nc(N3CC[C@H](CO)C3)c(=O)n(CC)c2c1
2,> 99.5 µM,O=C(O)c1ccn(C2CCN(Cc3c[nH]c4ccccc34)CC2)n1
3,35.3 µM,CN1C(=O)[C@H](c2cc(Cl)cc(NC(=O)OCc3ccccc3)c2)N(c2cccc(-c3nn[nH]n3)c2)C1=O
4,78.4 µM,NCc1cccc(NC(=O)c2cc3c(c(NC(=O)OCc4ccccc4)c2)OCC3)c1
5,> 99.5 µM,CCn1ccnc(N2CC(=O)[C@@H](c3c[nH]c4ccccc34)C2)c1=O
6,> 99.5 µM,CCn1ccnc(N2CC[C@@H](CC#N)C2)c1=O
7,9.14 µM,O=C(Nc1ccc2c(c1)CNC2)c1c(Br)cc(Cl)c2[nH]ncc12
8,> 99.5 µM,NCc1cccc(NC(=O)[C@H]2c3ccccc3CCN2C(=O)OCc2ccccc2)c1
9,> 25 µM,COc1ccccc1Cn1cnc2cc(C(=O)Nc3ccc4c(c3)CNC4)ccc21
10,> 99.5 µM,O=C(O)c1cc2cc(-c3cc(Cl)cc4c3CCNC4=O)ccc2[nH]1
11,66.3 µM and 82.1 µM,NCc1cccc(NC(=O)[C@@H](NC(=O)OCc2ccccc2)C(C2CCC2)C2CCC2)c1
12,> 99.5 µM,CC(C)(C#N)c1cc(C(=O)Nc2cccc(CN)c2)cc(C(F)(F)F)c1
13,> 99.5 µM,Cc1cc(C(=O)N[C@@H]2CC[C@@H]3CN(C)C[C@@H]32)sc1C=O
14,> 99.5 µM,COc1ccc2c(O)nn(S(=O)(=O)c3ccc(C(=O)O)cc3)c2c1
15,> 99.5 µM,NCc1cccc(NC(=O)[C@H](NC(=O)OCc2ccccc2)C2CCN(CCc3ccccc3)CC2)c1
16,> 99.5 µM,Cn1cc(C(=O)Nc2cccc(CN)c2)c(-c2cnccn2)n1
17,> 99.5 µM,CCOCC(=O)N1CCC([C@H](NC(=O)OCc2ccccc2)C(=O)Nc2cccc(CN)c2)CC1
18,> 99.5 µM,COCCN(C)C(=O)Cn1ccnc(N2CC[C@@H](CO)C2)c1=O
19,> 99.5 µM,C=CC[C@]1(NC(=O)c2cc(Cl)cc(NC(=O)OCc3ccccc3)c2)CCNC1
20,> 99.5 µM,O=C(Nc1cc(Cl)cc([C@H](Nc2cccc(-c3nn[nH]n3)c2)C(=O)NC2CCOCC2)c1)OCc1ccccc1

# Continued, compound first:
row,SMILES,IC50
1,O=C(Nc1ccc(C2CCNCC2)cc1)c1cc(Cl)cc2[nH]ncc12,9.21 µM
2,NCc1ccc(C[C@H](NC(=O)c2ccccc2)C(=O)Nc2cccc(CN)c2)cc1,> 99.5 µM
3,C=CC[C@H](Nc1cc(Cl)cc(NC(=O)OCc2ccccc2)c1)c1ccc(-c2nn[nH]n2)cc1,9.66 µM
4,CCn1cc(-c2cn(C)nc2C)nc(N2CC[C@@H](CO)C2)c1=O,> 99.5 µM
5,C[C@H]1CN(C(=O)c2cccc3c(CN)cccc23)CCC12CCNCC2,> 99.5 µM
6,Cc1nnsc1Cn1ccc(Br)n1,> 99.5 µM
7,N=C(N)NCCc1ccc(OC(=O)Nc2ccccc2)cc1,> 100 µM
8,O=C(Nc1cc(Cl)cc(C(=O)Nc2cccc(-c3cn[nH]n3)c2)c1)OCc1ccccc1,> 99.5 µM
9,O=C(Nc1ccc2c(c1)COC2)c1cc(Cl)cc2[nH]ncc12,> 99.5 µM
10,Cc1c(C(=O)Nc2cc(CCCN)ccn2)cc(-c2ccccc2)n1C,> 25 µM
11,COc1ccc(NS(=O)(=O)c2ccc(Cl)cc2C(=O)O)cc1N1CCCC1=O,> 99.5 µM
12,NCc1cccc(NC(=O)[C@@H](NC(=O)OCc2ccccc2)C2CCN(Cc3cccnc3)CC2)c1,> 99.5 µM
13,O=C1Cc2c(cc(F)cc2C(=O)Nc2cc([C@H]3CCOC3)ccn2)N1,> 25 µM
14,Cc1cc(-c2cc(F)cc(C(=O)Nc3ccc4c(c3)CNC4)c2)[nH]n1,0.09 µM and 0.055 µM
15,O=C(Nc1cc(Cl)cc(C(=O)Nc2cccc([C@H]3CNCCO3)c2)c1)OCc1ccccc1,> 99.5 µM
16,Cn1nc(CCN)nc1NC(=O)c1cc(Cl)cc(NC(=O)OCc2ccccc2)c1,31.3 µM
17,C#Cc1cc(CN)ccc1NS(=O)(=O)c1ccc(Oc2ccccc2Cl)cc1,> 99.5 µM

row,SMILES,IC50
1,NCc1cccc(NC(=O)c2cc(N)cc(NC(=O)OCc3ccccc3)c2)c1,> 99.5 µM
2,Cc1ccc(C)n1-c1ccc(Cl)cc1C(=O)Nc1ccc2c(c1)CNC2,> 25 µM
3,NCc1cccc(NC(=O)[C@@H](NC(=O)OCc2ccccc2)C2CCN(C(=O)C3CC3)CC2)c1,> 99.5 µM
4,NC(=O)[C@H]1CCCN(Cc2c[nH]c3ccccc23)C1,> 99.5 µM
5,O=C1NC[C@H](c2ccc(OCc3ccccc3)c(Br)c2)N1C(=O)OCc1ccccc1,> 99.5 µM
6,COCC=Cc1cccc([C@@H](NC(=O)OCc2ccccc2)C(=O)Nc2cccc(CN)c2)c1,26.8 µM
7,OC1(c2ccccc2)CCN(Cc2c[nH]c3ccccc23)CC1,> 99.5 µM
8,NCc1cccc(NC(=O)[C@H](NC(=O)OCc2ccccc2)C2CCN(C(=O)[C@H]3C[C@H](O)C3)CC2)c1,> 99.5 µM
9,CC(C)(C)OC(=O)N[C@H](C(=O)Nc1ccc(CN)cc1)c1ccc(OCc2ccccc2)cc1,> 99.5 µM
10,NS(=O)(=O)c1ccc(C(F)F)cc1-c1ccc2[nH]c(C(=O)O)cc2c1,> 99.5 µM
11,Clc1ccc2c(c1)ncn2Cc1ccc(-c2nn[nH]n2)cc1,> 99.5 µM
12,COCCCNC(=O)[C@H](Nc1ccc2c(c1)CNC2)c1cc(Cl)cc(C2CC2)c1,0.088 µM and 0.071 µM
13,CC(C)NC(=O)[C@H](Nc1ccc2c(c1)C(=O)OC2)c1cc(Cl)cc2[nH]ncc12,> 25 µM
14,Cc1ccc(S(=O)(=O)N2CCC([C@@H](NC(=O)OCc3ccccc3)C(=O)Nc3cccc(CN)c3)CC2)c(C)c1,71.9 µM
15,Fc1cc(CNc2ccc3c(n2)CNC3)c2cn[nH]c2c1,> 25 µM
16,CCOC(=O)c1cc(C(=O)N[C@H](C(=O)Nc2cccc(CN)c2)c2ccc(OCc3ccccc3)cc2)n(C)n1,23.7 µM and 23.1 µM
17,O=C(/C=C/c1ccc(N2CCNCC2)cc1)C(=O)N1CCOCC1,> 99.5 µM
